# Measurements reported in patent publication US7560482B2, “Inhibitors of plasmepsins” (The Johns Hopkins University, priority 2001, dated 2009).
# Like-named read-outs stand apart in the source and are kept apart here.
# Assays:
# [1] = target: T1, plasmepsin II from Plasmodium falciparum (Plm II) (Plasmodium falciparum, UniProt P46925); experiment: Plasmepsin II inhibition assay, hydrolysis of chromogenic substrate; format: biochemical; conditions: for Discrimination Factor: Fold Selectivity for Plasmepsin II over Cathepsin D: ratio of the Ki for Cathepsin D to the Ki for Plasmepsin II; for discrimination factor / Cathepsin D selectivity: Plasmepsin II versus Cathepsin D, fold
# T1 construct: made in house; host or cells: Escherichia coli
# Description: FIG. 7A-C. Inhibition of Plasmepsin II from Plasmodium falciparum by KNI-10033, KNI-10030 and KNI-10006 at 20° C. in 10 mM sodium citrate, 100 mM NaCl, 2% DMSO, pH 4.0. The inhibition constants are 3 nM, 11 nM and 0.5 rLM respectively.
# (§1) The specific activity of plasmepsin II from Plasmodium falciparum (Plm II) cloned in and purified from Escherchia coli and commercially available human Cathepsin D were measured by following the hydrolysis of the chromogenic substrate Ala-Leu-Glu-Arg-Thr-nPhe-Phe-Ser-Phe-Pro-Thr-OH (California Peptide Research Inc., Napa, Calif.). The decrease in absorbance upon hydrolysis is monitored at 300 nm. Typical Plasmepsin II preparations hydrolyze chromogenic substrate at 4-5 s^−1 at 37° C. The inhibition assays were performed at 25° C. in 10 mM sodium formate, 2% DMSO, pH 4.0. These pH conditions mimic the conditions in the food vacuole of the parasite. […] Inhibition constants (Ki) for the inhibitors are obtained at the desired temperature and solvent conditions by measuring the rate of substrate hydrolysis at increasing amounts of inhibitors. Exemplary results from three compounds (KNI-10033, KNI-10030 and KNI-10006) are shown in FIG. 7A-C, and the results obtained with all KNI compounds tested are given in Table 1.
# human Cathepsin D = target: T2, human Cathepsin D (Homo sapiens, UniProt P07339); experiment: Cathepsin D inhibition assay, hydrolysis of chromogenic substrate; format: biochemical
# T2 construct: purchased
# Description: as §1
# [2] = 20° C., 10 mM sodium citrate, 100 mM NaCl, 2% DMSO, pH 4.0, read-out: inhibition constant, Plasmepsin II (FIG. 7)
# [3] = Table 2, read-out: Ki Plasmepsin II
# [4] = 25° C., 10 mM sodium formate, 2% DMSO, pH 4.0, fit to competitive inhibition, read-out: Ki CatD
# [5] = 25° C., 10 mM sodium formate, 2% DMSO, pH 4.0, fit to competitive inhibition, read-out: Ki Plm II
# [6] = Table 2, read-out: Ki Cathepsin D
# T2 sequence (P07339 65-412): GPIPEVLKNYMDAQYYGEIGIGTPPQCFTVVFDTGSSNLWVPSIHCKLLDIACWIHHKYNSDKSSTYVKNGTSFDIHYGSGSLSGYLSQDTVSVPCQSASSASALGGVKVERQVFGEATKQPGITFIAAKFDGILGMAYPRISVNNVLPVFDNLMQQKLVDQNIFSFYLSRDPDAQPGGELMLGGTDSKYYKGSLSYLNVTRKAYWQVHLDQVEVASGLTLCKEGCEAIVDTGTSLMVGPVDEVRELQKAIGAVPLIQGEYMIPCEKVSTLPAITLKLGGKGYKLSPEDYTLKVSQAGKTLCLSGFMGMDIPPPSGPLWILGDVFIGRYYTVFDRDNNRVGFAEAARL
# T1 sequence (P46925 125-453): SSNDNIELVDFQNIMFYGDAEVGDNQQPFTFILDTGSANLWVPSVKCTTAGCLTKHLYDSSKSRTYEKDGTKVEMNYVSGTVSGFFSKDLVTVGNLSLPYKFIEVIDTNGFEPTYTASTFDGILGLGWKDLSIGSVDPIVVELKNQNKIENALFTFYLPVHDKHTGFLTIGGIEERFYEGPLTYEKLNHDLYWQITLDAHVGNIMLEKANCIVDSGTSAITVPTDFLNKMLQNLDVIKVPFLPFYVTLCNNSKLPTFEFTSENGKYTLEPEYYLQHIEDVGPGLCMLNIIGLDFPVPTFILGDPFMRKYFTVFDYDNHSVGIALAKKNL
Compound,Ki (human Cathepsin D; [4]),"Ki [1, 5]",other results
CSC[C@H](NC(=O)COc1cccc2cnccc12)C(=O)N[C@@H](Cc1ccccc1)[C@H](O)C(=O)N1CSC(C)(C)[C@H]1C(=O)N[C@H]1Cc2ccccc2[C@H]1O [KNI-10033],40 ± 10 nM,,"inhibition constants against Plasmepsin II, in words [1]: nanomolar and subnanomolar range; Ki [1, 2]: 3 nM; Ki [1, 3]: 3 nM; Discrimination Factor: Fold Selectivity for Plasmepsin II over Cathepsin D [1]: ~13; Ki (human Cathepsin D; read-out: Ki for Cathepsin D): 40 nM"
CC(C)[C@H](NC(=O)c1cc(=O)c2ccccc2o1)C(=O)N[C@@H](Cc1ccccc1)[C@H](O)C(=O)N1CSC(C)(C)[C@H]1C(=O)NC(C)(C)C [KNI-10002],112 ± 20 nM,244 ± 20 nM,
CSCC[C@H](NC(=O)COc1cccc2cnccc12)C(=O)N[C@@H](Cc1ccccc1)[C@H](O)C(=O)N1CSC(C)(C)[C@H]1C(=O)NC(C)(C)C [KNI-10032],2620 ± 390 nM,535 ± 55 nM,
COc1ccc(CCNC(=O)[C@H]2N(C(=O)[C@@H](O)[C@H](Cc3ccccc3)NC(=O)COc3c(C)cccc3C)CSC2(C)C)cc1 [KNI-10025],655 ± 83 nM,75 ± 10 nM,
CC(C)(C)NC(=O)[C@H]1N(C(=O)[C@@H](O)[C@H](Cc2ccccc2)NC(=O)COc2cccc(Cl)c2)CSC1(C)C [KNI-10045],6160 ± 671 nM,1080 ± 165 nM,
Cc1cccc(C)c1OCC(=O)N[C@@H](Cc1ccccc1)[C@H](O)C(=O)N1CSC(C)(C)[C@H]1C(=O)NCc1ccccc1 [KNI-10046],260 ± 23 nM,96 ± 20 nM,
Cc1cccc(CNC(=O)[C@H]2N(C(=O)[C@@H](O)[C@H](Cc3ccccc3)NC(=O)COc3c(C)cccc3C)CSC2(C)C)c1 [KNI-10053],360 ± 54 nM,41 ± 7 nM,"inhibition constants against Plasmepsin II, in words [1]: nanomolar and subnanomolar range; Ki [1, 3]: 41 nM; Discrimination Factor: Fold Selectivity for Plasmepsin II over Cathepsin D [1]: ~9; Ki (human Cathepsin D; [6]): 360 nM"
CC(C)[C@H](NC(=O)Cc1ccc2ccccc2c1)C(=O)N[C@@H](Cc1ccccc1)[C@H](O)C(=O)N1CSC(C)(C)[C@H]1C(=O)NC(C)(C)C [KNI-10029],282 ± 39 nM,860 ± 90 nM,
Cc1cccc(C)c1OCC(=O)N[C@@H](Cc1ccccc1)[C@H](O)C(=O)N1CSC(C)(C)[C@H]1C(=O)N[C@H]1c2ccccc2C[C@H]1O [KNI-10006],2 nM,,"inhibition constants against Plasmepsin II, in words [1]: nanomolar and subnanomolar range; discrimination factor / Cathepsin D selectivity [1]: 4; Ki [1, 3]: 0.5 nM; Discrimination Factor: Fold Selectivity for Plasmepsin II over Cathepsin D [1]: 4; Ki ([1]; read-out: Ki (Plasmepsin II)): 0.5 nM; Ki (human Cathepsin D; [6]): 2 nM"
CSC[C@H](NC(=O)COc1c(C)cccc1C)C(=O)N[C@@H](Cc1ccccc1)[C@H](O)C(=O)N1CSC(C)(C)[C@H]1C(=O)NC(C)(C)C [KNI-10041],1670 ± 256 nM,496 ± 69 nM,
CC(C)[C@H](NC(=O)Cc1cccc2ccccc12)C(=O)N[C@@H](Cc1ccccc1)[C@H](O)C(=O)N1CSC(C)(C)[C@H]1C(=O)NC(C)(C)C [KNI-10028],690 ± 70 nM,1630 ± 157 nM,
CC(C)[C@H](NC(=O)c1ccccn1)C(=O)N[C@@H](Cc1ccccc1)[C@H](O)C(=O)N1CSC(C)(C)[C@H]1C(=O)NC(C)(C)C [KNI-10003],970 ± 100 nM,1150 ± 190 nM,
Cc1cccc(C)c1OCC(=O)NC(Cc1ccccc1)C(O)C(=O)N1CSC(C)(C)C1C(=O)NC(C)(C)C (stereo not drawn) [KNI-727],1600 ± 300 nM,70 ± 40 nM,"inhibition constants against Plasmepsin II, in words [1]: nanomolar and subnanomolar range; discrimination factor / Cathepsin D selectivity [1]: 22; Discrimination Factor: Fold Selectivity for Plasmepsin II over Cathepsin D [1]: ~23; Ki (human Cathepsin D; [6]): 1600 nM"
Cc1cccc(C)c1OCC(=O)N[C@@H](Cc1ccccc1)[C@H](O)C(=O)N1CSC(C)(C)[C@H]1C(=O)N[C@H](C)c1ccccc1 [KNI-10030],111 ± 15 nM,,"Ki [1, 2]: 11 nM; Ki [1, 3]: 11 nM; Discrimination Factor: Fold Selectivity for Plasmepsin II over Cathepsin D [1]: ~10; Ki (human Cathepsin D; [6]): 111 nM"
CSC[C@H](NC(=O)COc1cccc2cnccc12)C(=O)N[C@@H](Cc1ccccc1)[C@@H](O)C(=O)N1CSC[C@H]1C(=O)NC(C)(C)C [KNI-529],8820 ± 2800 nM,8090 ± 2600 nM,
Cc1cccc(C)c1OCC(=O)N[C@@H](Cc1ccccc1)[C@H](O)C(=O)N1CSC(C)(C)[C@H]1C(=O)N[C@H]1CCc2ccccc21 [KNI-10026],105 ± 18 nM,15 ± 5 nM,"inhibition constants against Plasmepsin II, in words [1]: nanomolar and subnanomolar range; Ki [1, 3]: 15 nM; Discrimination Factor: Fold Selectivity for Plasmepsin II over Cathepsin D [1]: 7; Ki (human Cathepsin D; [6]): 105 nM"
Cc1c(O)cccc1C(=O)N[C@@H](Cc1ccccc1)[C@H](O)C(=O)N1CSC(C)(C)[C@H]1C(=O)NC(C)(C)C [KNI-577],3440 ± 700 nM,590 ± 70 nM,
CC(C(=O)O)C(C)C(=O)N[C@@H](Cc1ccccc1)[C@H](O)C(=O)N1CSC[C@H]1C(=O)NC(C)(C)C (stereo partly drawn) [KNI-547],18200 ± 3300 nM,30700 ± 8100 nM,
Cc1cccc(C)c1OCC(=O)N[C@@H](Cc1ccccc1)[C@H](O)C(=O)N1CSC(C)(C)[C@H]1C(=O)N[C@@H]1c2ccccc2C[C@@H]1O [KNI-10007],806 ± 600 nM,71 ± 10 nM,

Compound,Ki (human Cathepsin D; [4]),"Ki [1, 5]",other results
CC(C)(C)NC(=O)[C@@H]1CSCN1C(=O)[C@@H](O)[C@H](Cc1ccccc1)NC(=O)CC(C)(C)C(=O)O [KNI-391],1350 ± 80 nM,12700 ± 1500 nM,Ki (human Cathepsin D; read-out: Ki for Cathepsin D): 1350 nM
Cc1cccc(C)c1OCC(=O)NC(Cc1ccccc1)C(O)C(=O)N1CSC(C)(C)C1C(=O)NCc1ccc(O)cc1 (stereo not drawn) [KNI-10054],1640 ± 146 nM,273 ± 41 nM,
CCC[C@H](NC(=O)COc1cccc2cnccc12)C(=O)N[C@@H](Cc1ccccc1)[C@H](O)C(=O)N1CSC(C)(C)[C@H]1C(=O)NC(C)(C)C [KNI-10042],2260 ± 166 nM,222 ± 17 nM,
CC(C)C(NC(=O)COc1ccccc1)C(=O)NC(Cc1ccccc1)C(O)C(=O)N1CSC(C)(C)C1C(=O)NC(C)(C)C (stereo not drawn) [KNI-10056],1280 ± 161 nM,1770 ± 154 nM,
Cc1cccc(C)c1OCC(=O)N[C@@H](Cc1ccccc1)[C@H](O)C(=O)N1CSC(C)(C)[C@H]1C(=O)NCc1ccccc1O [KNI-10047],252 ± 53 nM,55 ± 7 nM,
CCSC[C@H](NC(=O)COc1cccc2cnccc12)C(=O)N[C@@H](Cc1ccccc1)[C@H](O)C(=O)N1CSC(C)(C)[C@H]1C(=O)NC(C)(C)C [KNI-10057],5300 ± 633 nM,428 ± 21 nM,
CSC[C@H](NC(=O)COc1cccc2cnccc12)C(=O)N[C@@H](Cc1ccccc1)[C@H](O)C(=O)N1CSC[C@H]1C(=O)NC(C)(C)C [KNI-272],2580 ± 300 nM,1000 ± 200 nM,
Cc1ccc(CNC(=O)[C@H]2N(C(=O)[C@@H](O)[C@H](Cc3ccccc3)NC(=O)COc3c(C)cccc3C)CSC2(C)C)cc1 [KNI-10052],1320 ± 152 nM,572 ± 54 nM,
Cc1cccc(C)c1OCC(=O)NC(Cc1ccccc1)C(O)C(=O)N1CSC(C)(C)C1C(=O)NC(CO)c1ccccc1 (stereo not drawn) [KNI-10044],1040 ± 178 nM,532 ± 70 nM,
CC[C@H](C)[C@H](NC(=O)COc1cccc2cnccc12)C(=O)N[C@@H](Cc1ccccc1)[C@H](O)C(=O)N1CSC(C)(C)[C@H]1C(=O)NC(C)(C)C [KNI-10001],1610 ± 330 nM,359 ± 60 nM,
CC(C)[C@H](NC(=O)COc1cccc(Nc2ccccc2)c1)C(=O)N[C@@H](Cc1ccccc1)[C@H](O)C(=O)N1CSC(C)(C)[C@H]1C(=O)NC(C)(C)C [KNI-10005],507 ± 100 nM,250 ± 190 nM,
CC(C)C(NC(=O)OCc1ccccc1)C(=O)NC(Cc1ccccc1)C(O)C(=O)N1CSC(C)(C)C1C(=O)NC(C)(C)C (stereo not drawn) [KNI-10049],2580 ± 682 nM,1510 ± 125 nM,
Cc1cccc(C)c1OCC(=O)N[C@@H](Cc1ccccc1)[C@H](O)C(=O)N1CSC(C)(C)[C@H]1C(=O)N[C@H](CO)c1ccccc1 [KNI-10043],53 ± 8 nM,22 ± 5 nM,"inhibition constants against Plasmepsin II, in words [1]: nanomolar and subnanomolar range; Ki [1, 3]: 22 nM; Discrimination Factor: Fold Selectivity for Plasmepsin II over Cathepsin D [1]: 2.4; Ki (human Cathepsin D; [6]): 53 nM"
CC(C)(C)NC(=O)C1N(C(=O)C(O)C(Cc2ccccc2)NC(=O)C(CCC(N)=O)NC(=O)COc2cccc3cnccc23)CSC1(C)C (stereo not drawn) [KNI-10055],6280 ± 981 nM,1170 ± 71 nM,
COc1ccc(CNC(=O)[C@H]2N(C(=O)[C@@H](O)[C@H](Cc3ccccc3)NC(=O)COc3c(C)cccc3C)CSC2(C)C)cc1 [KNI-10008],461 ± 140 nM,169 ± 20 nM,
Cc1cccc(C)c1OCC(=O)N[C@@H](Cc1ccccc1)[C@H](O)C(=O)N1CSC(C)(C)[C@H]1C(=O)Nc1cccc2ccccc12 [KNI-10031],130 ± 19 nM,83 ± 7 nM,
CC(C)(C)NC(=O)[C@H]1N(C(=O)[C@@H](O)[C@H](Cc2ccccc2)NC(=O)CC(C)(C)C(=O)O)CSC1(C)C [KNI-413],7260 ± 1400 nM,1390 ± 500 nM,
CC(C)[C@H](NC(=O)COc1cccc2cnccc12)C(=O)N[C@@H](Cc1ccccc1)[C@H](O)C(=O)N1CSC(C)(C)[C@H]1C(=O)NC(C)(C)C [KNI-492],3700 ± 350 nM,340 ± 20 nM,
CC(C)(C)NC(=O)[C@@H]1CSCN1C(=O)[C@@H](O)[C@H](Cc1ccccc1)NC(=O)CCC(=O)O [KNI-357],8120 ± 1500 nM,96900 ± 19100 nM,
